What is called IC50 is the concentration that gives 50% inhibition.

In the assay the target is recombinant CaMKIIδ (Homo sapiens (Human), UniProt Q13557). The experiment in a line: CaMKIIδ biochemical assay (HTRF). The conditions noted are these: 10 pM CaMKIIδ, 110 nM calmodulin, 12 μM ATP, 1 hour; read-out: CAMKIID-HTRF-384V2 (IC50 - nM). Here is the method: CaMKIIδ Biochemical Assay
The biochemical activity of recombinant CaMKIIδ was measured by monitoring the phosphorylation of a target peptide using Homogenous Time Resolved Fluorescence (HTRF) technology from CisBio Bioassays.
On the technique in general: Time-resolved FRET reads energy transfer from a long-lived donor to a nearby acceptor.
Regarding `CCN(CC)[C@@H](C)CNC(=O)c1cc(-c2cnn3ccc(-c4cccs4)nc23)nc(N2CC(F)(F)C(F)(F)C2)c1` [Example 230, (S)—N-(2-(diethylamino)propyl)-2-(3,3,4,4-tetrafluoropyrrolidin-1-yl)-6-(5-(thiophen-2-yl)pyrazolo[1,5-a]pyrimidin-3-yl)isonicotinamide], the IC50 worked out at 1.8 nM.

Turning to `CCN(CC)[C@@H](C)CNC(=O)c1cc(Nc2cn[nH]c2)nc(-c2cnn3ccc(-c4cccs4)nc23)c1` [Example 231, (S)-2-((1H-pyrazol-4-yl)amino)-N-(2-(diethylamino)propyl)-6-(5-(thiophen-2-yl)pyrazolo[1,5-a]pyrimidin-3-yl)isonicotinamide], the IC50 stood at 0.06 nM.

Regarding `CCN(CC)[C@@H](C)CNC(=O)c1cc(-c2cnn3ccc(-c4cccs4)nc23)nc(N2CCC(F)(F)C2)c1` [Example 232, (S)—N-(2-(diethylamino)propyl)-2-(3,3-difluoropyrrolidin-1-yl)-6-(5-(thiophen-2-yl)pyrazolo[1,5-a]pyrimidin-3-yl)isonicotinamide], the IC50 was 0.28 nM.

Regarding `CCN(CC)[C@@H](C)CNC(=O)c1cc(-c2cnn3ccc(-c4cccs4)nc23)nc(N2CCC3(COC3)C2)c1` [Example 233, (S)—N-(2-(diethylamino)propyl)-2-(2-oxa-6-azaspiro[3.4]octan-6-yl)-6-(5-(thiophen-2-yl)pyrazolo[1,5-a]pyrimidin-3-yl)isonicotinamide], the concentration for half-maximal inhibition (IC50) came to 0.18 nM.

With `CCN(CC)[C@@H](C)CNC(=O)c1cc(-c2cnn3ccc(-c4cccs4)nc23)nc(N2CCC23COC3)c1` [Example 234, (S)—N-(2-(diethylamino)propyl)-2-(6-oxa-1-azaspiro[3.3]heptan-1-yl)-6-(5-(thiophen-2-yl)pyrazolo[1,5-a]pyrimidin-3-yl)isonicotinamide], the IC50 worked out at 1.28 nM.

For `CCN(CC)[C@@H](C)CNC(=O)c1cc(N[C@H](C)C(N)=O)nc(-c2cnn3ccc(-c4cccs4)nc23)c1` [Example 235, 2-(((R)-1-amino-1-oxopropan-2-yl)amino)-N—((S)-2-(diethylamino)propyl)-6-(5-(thiophen-2-yl)pyrazolo[1,5-a]pyrimidin-3-yl)isonicotinamide], the IC50 amounted to 1.83 nM.

Consider `CCN(CC)[C@@H](C)CNC(=O)c1cc(N[C@@H](C)C(N)=O)nc(-c2cnn3ccc(-c4cccs4)nc23)c1` [Example 236, 2-(((S)-1-amino-1-oxopropan-2-yl)amino)-N—((S)-2-(diethylamino)propyl)-6-(5-(thiophen-2-yl)pyrazolo[1,5-a]pyrimidin-3-yl)isonicotinamide], for which the IC50 came to 0.83 nM.

Turning to `CCN(CC)[C@@H](C)CNC(=O)c1cc(NCc2ncc[nH]2)nc(-c2cnn3ccc(-c4cccs4)nc23)c1` [Example 237, (S)-2-(((1H-imidazol-2-yl)methyl)amino)-N-(2-(diethylamino)propyl)-6-(5-(thiophen-2-yl)pyrazolo[1,5-a]pyrimidin-3-yl)isonicotinamide], the IC50 was found to be 0.13 nM.

In the case of `CCN(CC)[C@@H](C)CNC(=O)c1cc(NCC(N)=O)nc(-c2cnn3ccc(-c4cccs4)nc23)c1` [Example 238, (S)-2-((2-amino-2-oxoethyl)amino)-N-(2-(diethylamino)propyl)-6-(5-(thiophen-2-yl)pyrazolo[1,5-a]pyrimidin-3-yl)isonicotinamide], the IC50 turned out to be 0.28 nM.

As to `CCN(CC)[C@@H](C)CNC(=O)c1cc(N[C@H](C)C(=O)NC)nc(-c2cnn3ccc(-c4cccs4)nc23)c1` [Example 239, N—((S)-2-(diethylamino)propyl)-2-(((R)-1-(methylamino)-1-oxopropan-2-yl)amino)-6-(5-(thiophen-2-yl)pyrazolo[1,5-a]pyrimidin-3-yl)isonicotinamide], the half-inhibitory concentration (IC50) was 3.66 nM.

Take `CCN(CC)[C@@H](C)CNC(=O)c1cc(N[C@@H](C)C(=O)NC)nc(-c2cnn3ccc(-c4cccs4)nc23)c1` [Example 240, N—((S)-2-(diethylamino)propyl)-2-(((S)-1-(methylamino)-1-oxopropan-2-yl)amino)-6-(5-(thiophen-2-yl)pyrazolo[1,5-a]pyrimidin-3-yl)isonicotinamide]: the IC50 is 1.07 nM.

Regarding `CCN(CC)[C@@H](C)CNC(=O)c1cc(Nc2ncc[nH]2)nc(-c2cnn3ccc(-c4cccs4)nc23)c1` [Example 241, (S)-2-((1H-imidazol-2-yl)amino)-N-(2-(diethylamino)propyl)-6-(5-(thiophen-2-yl)pyrazolo[1,5-a]pyrimidin-3-yl)isonicotinamide], the IC50 came to 1.87 nM.

With `CCN(CC)[C@@H](C)CNC(=O)c1cc(NCCS(N)(=O)=O)nc(-c2cnn3ccc(-c4cccs4)nc23)c1` [Example 242, (S)—N-(2-(diethylamino)propyl)-2-((2-sulfamoylethyl)amino)-6-(5-(thiophen-2-yl)pyrazolo[1,5-a]pyrimidin-3-yl)isonicotinamide], the IC50 turned out to be 0.07 nM.

Take `CCN(CC)[C@@H](C)CNC(=O)c1cc(-c2cnn3ccc(-c4cccs4)nc23)nc(N2C[C@H](O)[C@@H](O)C2)c1` [Example 243, N—((S)-2-(diethylamino)propyl)-2-((3S,4S)-3,4-dihydroxypyrrolidin-1-yl)-6-(5-(thiophen-2-yl)pyrazolo[1,5-a]pyrimidin-3-yl)isonicotinamide]: the IC50 is 0.14 nM.

On to `CCN(CC)[C@@H](C)CNC(=O)c1cc(-c2cnn3ccc(-c4cccs4)nc23)nc(N2CC(CO)(CO)C2)c1` [Example 244, (S)-2-(3,3-bis(hydroxymethyl)azetidin-1-yl)-N-(2-(diethylamino)propyl)-6-(5-(thiophen-2-yl)pyrazolo[1,5-a]pyrimidin-3-yl)isonicotinamide], for which the IC50 worked out at 0.16 nM.

Consider `CCN[C@@H](C)CNC(=O)c1cc(-c2cnn3ccc(-c4cccs4)nc23)nc(N2CC(C)(O)C2)c1` [Example 245, (S)—N-(2-(ethylamino)propyl)-2-(3-hydroxy-3-methylazetidin-1-yl)-6-(5-(thiophen-2-yl)pyrazolo[1,5-a]pyrimidin-3-yl)isonicotinamide], for which the IC50 worked out at 9.25 nM.

For the molecule `CCN(CC)[C@@H](C)CNC(=O)c1cc(NCC(=O)NC)nc(-c2cnn3ccc(-c4cccs4)nc23)c1` [Example 246, (S)—N-(2-(diethylamino)propyl)-2-((2-(methylamino)-2-oxoethyl)amino)-6-(5-(thiophen-2-yl)pyrazolo[1,5-a]pyrimidin-3-yl)isonicotinamide], the IC50 is 0.17 nM.

Turning to `CCN(CC)[C@@H](C)CNC(=O)c1cc(-c2cnn3ccc(-c4cccs4)nc23)nc(N2CCC(OC)CC2)c1` [Example 247, (S)—N-(2-(diethylamino)propyl)-2-(4-methoxypiperidin-1-yl)-6-(5-(thiophen-2-yl)pyrazolo[1,5-a]pyrimidin-3-yl)isonicotinamide], the IC50 is 0.46 nM.

On to `CCN(CC)[C@@H](C)CNC(=O)c1cc(-c2cnn3ccc(-c4cccs4)nc23)nc(N2CC(C)(N(C)C)C2)c1` [Example 248, (S)—N-(2-(diethylamino)propyl)-2-(3-(dimethylamino)-3-methylazetidin-1-yl)-6-(5-(thiophen-2-yl)pyrazolo[1,5-a]pyrimidin-3-yl)isonicotinamide], for which the IC50 was 0.21 nM.

Take `CCN(CC)[C@@H](C)CNC(=O)c1cc(-c2cnn3ccc(-c4cccs4)nc23)nc(N2CC3(CCC3(F)F)C2)c1` [Example 249, (S)—N-(2-(diethylamino)propyl)-2-(5,5-difluoro-2-azaspiro[3.3]heptan 2 yl)-6-(5-(thiophen-2-yl)pyrazolo[1,5-a]pyrimidin-3-yl)isonicotinamide]: the IC50 was 0.2 nM.

On to `CCN(CC)[C@@H](C)CNC(=O)c1cc(-c2cnn3ccc(-c4cccs4)nc23)nc(N2CCC23CCC3)c1` [Example 250, (S)—N-(2-(diethylamino)propyl)-2-(1-azaspiro[3.3]heptan-1-yl)-6-(5-(thiophen-2-yl)pyrazolo[1,5-a]pyrimidin-3-yl)isonicotinamide], for which the IC50 is 1.61 nM.

Regarding `CCN(CC)[C@@H](C)CNC(=O)c1cc(-c2cnn3ccc(-c4cccs4)nc23)nc(N2CCC[C@@H]2C(F)(F)F)c1` [Example 251, N—((S)-2-(diethylamino)propyl)-2-(5-(thiophen-2-yl)pyrazolo[1,5-a]pyrimidin-3-yl)-6-((R)-2-(trifluoromethyl)pyrrolidin-1-yl)isonicotinamide], the IC50 was 2.05 nM.

Consider `CCN(CC)[C@@H](C)CNC(=O)c1cc(-c2cnn3ccc(-c4cccs4)nc23)nc(-n2cncn2)c1` [Example 252, (S)—N-(2-(diethylamino)propyl)-2-(5-(thiophen-2-yl)pyrazolo[1,5-a]pyrimidin-3-yl)-6-(1H-1,2,4-triazol-1-yl)isonicotinamide], for which the IC50 worked out at 1.87 nM.

Consider `CCN(CC)[C@@H](C)CNC(=O)c1cc(-c2cnn3ccc(-c4cccs4)nc23)nc(N2C[C@@H]3C[C@H]2CO3)c1` [Example 253, 2-((1S,4S)-2-oxa-5-azabicyclo[2.2.1]heptan-5-yl)-N—((S)-2-(diethylamino)propyl)-6-(5-(thiophen-2-yl)pyrazolo[1,5-a]pyrimidin-3-yl)isonicotinamide], for which the IC50 worked out at 0.38 nM.

For the molecule `CCN(CC)CCNC(=O)c1cc(-c2cnn3ccc(-c4cccs4)nc23)nc(N2CC(OC)C2)c1` [Example 254, N-(2-(diethylamino)ethyl)-2-(3-methoxyazetidin-1-yl)-6-(5-(thiophen-2-yl)pyrazolo[1,5-a]pyrimidin-3-yl)isonicotinamide], the half-maximal inhibitory concentration (IC50) was found to be 0.86 nM.

Turning to `COC1CN(c2cc(C(=O)NC[C@@H]3CCCN3)cc(-c3cnn4ccc(-c5cccs5)nc34)n2)C1` [Example 255, (S)-2-(3-methoxyazetidin-1-yl)-N-(pyrrolidin-2-ylmethyl)-6-(5-(thiophen-2-yl)pyrazolo[1,5-a]pyrimidin-3-yl)isonicotinamide], the IC50 was determined as 33.9 nM.

For the molecule `CCN1CCC[C@H]1CNC(=O)c1cc(-c2cnn3ccc(-c4cccs4)nc23)nc(N2CC(OC)C2)c1` [Example 256, (S)—N-((1-ethylpyrrolidin-2-yl)methyl)-2-(3-methoxyazetidin-1-yl)-6-(5-(thiophen-2-yl)pyrazolo[1,5-a]pyrimidin-3-yl)isonicotinamide], the IC50 came out at 2.42 nM.

The values are drawn from patent US10100058B2, “Fused heterocyclic compounds as CaM kinase inhibitors” (Gilead Sciences, Inc., priority 2016, dated 2018).
